Assay type in all cases: in vivo
The test system of one series is Cyperus difformis. The series can be described thus: Test Example 3: herbicidal effect by foliage application, Wagner pot (symbol E). The settings on record: application herbicide amount 320 g/ha. In outline: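 Post-emergence, paddy-type test: seedlings 14 d old in shallow-flooded (0.1–0.5 cm) alluvial soil, 25–30 °C greenhouse. Emulsion diluted to target rate, sprayed on leaves. Read-out: visual effect on each species at 3 weeks, per set criteria.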

Series [1] has as its system directly sowed rice plant. The series can be described thus: Test Example 3: effect on crop by foliage application, Wagner pot (symbol b). The settings on record: application herbicide amount 320 g/ha. Summed up:
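Steps: fill a 1/10000-are Wagner pot with alluvial soil; add water and mix to submerge at 0.1–0.5 cm depth; sow rice plus Echinochloa crus-galli var. crus-galli, Leptochloa chinensis and Cyperus difformis; grow in a 25–30 °C greenhouse.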

In a further series the test system is transplanted rice plant. In words: Test Example 1: effect on crop, application before weed generation in submerged conditions (symbol a). The conditions noted are these: application herbicide amount 320 g/ha. Summed up: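 Alluvial soil pots flooded to 4 cm water, sown with Echinochloa oryzacola, Scirpus juncoides and Monochoria vaginalis, then transplanted with 2.5 leaf stage rice seedlings; pre-emergence application. Greenhouse 25° C. to 30° C.; scored 0–5 by herbicidal ratio 3 weeks after application.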

The subject of a further series is Avena fatua. In words: Test Example 5: herbicidal effect by foliage application, plastic box (symbol I). The settings on record: 320 g/ha, 3 weeks after application. Summed up: (§1)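 Sowing in sterilized diluvial soil, 14 days' greenhouse growth at 25° C. to 30° C., then uniform small-sprayer foliar application of aqueous emulsion dilution; plants scored three weeks afterwards.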

The test system of another series is Chenopodium album. In words: Test Example 5: herbicidal effect by foliage application, plastic box (symbol O). The settings on record: 320 g/ha, 3 weeks after application. Summed up:
as §1

The test system of a further series is Scirpus juncoides. In words: Test Example 2: herbicidal activity, application during weed generation in submerged conditions (symbol B). The settings on record: Table 23; application herbicide amount 320 g/ha; grade 0-5 by criteria of Test Example 1. Summed up: (§2)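 Steps: fill pots with alluvial soil; add water to 4 cm depth; co-sow the three weeds; grow at 25° C. to 30° C. under glass; at 1–2 leaves, dose the floodwater with diluted emulsion; rate damage visually after 3 weeks.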

The next series relates to wheat. The series can be described thus: Test Example 4: effect on crop by soil treatment (symbol e). The conditions noted are these: application herbicide amount 320 g/ha. In outline:
(§3)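 Crop seeds, among them rice, wheat, beet and rapeseed, were sown in sterilized diluvial soil and covered with about 1.5 cm of soil. Boxes were kept in a greenhouse at 25° C. to 30° C. for plant growth.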

A further series relates to corn. The series can be described thus: Test Example 5: effect on crop by foliage application, plastic box (symbol c). The settings on record: 320 g/ha, 3 weeks after application. Summed up: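 Box culture: sterile diluvial soil, seeds spot-sown, ~1.5 cm cover, raised under glass at 25–30° C.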
In the next series the test system is soybean. The series can be described thus: Test Example 4: effect on crop by soil treatment (symbol d). The settings on record: application herbicide amount 320 g/ha. Summed up: as §3
The next series has as its system rice. The series can be described thus: Test Example 4: effect on crop by soil treatment (symbol b). The settings on record: application herbicide amount 320 g/ha. In outline:
as §3

A further series concerns Monochoria vaginalis. In words: Test Example 2: herbicidal activity, application during weed generation in submerged conditions (symbol C). The settings on record: Table 23; application herbicide amount 320 g/ha; grade 0-5 by criteria of Test Example 1. In outline: as §2
A further series concerns Lolium multiflorum Lam. The series can be described thus: Test Example 5: herbicidal effect by foliage application, plastic box (symbol K). The settings on record: 320 g/ha, 3 weeks after application. In outline:
as §1

Series [2] has as its system Echinochloa oryzacola Vasing. In words: Test Example 1: herbicidal activity, application before weed generation in submerged conditions (symbol A). The conditions noted are these: application herbicide amount 320 g/ha. Summed up:
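Weeds are sown into submerged alluvial soil alongside transplanted 2.5-leaf rice, and the compound, as an emulsion diluted to a set rate, is applied onto the water before emergence. Rating on the 0–5 herbicidal-ratio scale follows 3 weeks of greenhouse growth at 25–30 °C.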

`CON=C(C)CC1CC(OC(=O)C(C)(C)Oc2ccccc2Cl)=C(c2c(C)cc(C)cc2C)C1=O` (centres unmarked) [1-064]: the “herbicidal effect on E, grade 0-5” value in the series with Cyperus difformis is 5 (Herbicidal ratio of 90% or more (almost completely withered)). The “effect on crop b (directly sowed rice plant), grade 0-5” value (“effect on crop b” for short) in series [1] is on record as 5 (Herbicidal ratio of 90% or more (almost completely withered)). In the series on transplanted rice plant, the “Effect grade on crop, a: transplanted rice plant” value (shortened to “Effect grade on crop”) was 4 (Herbicidal ratio of 70% or higher and lower than 90%). Besides, the “I: Avena fatua, herbicidal effect grade” value in the series on Avena fatua is reported as 5 (Herbicidal ratio of 90% or more (almost completely withered)). Moreover, the “O: Chenopodium album, herbicidal effect grade” value (“O: Chenopodium album” below) in the series with Chenopodium album is reported as 0 (Herbicidal ratio of 5% or lower (almost no effect)). Further, in the series on Scirpus juncoides, the “Herbicidal effect grade, B: Scirpus juncoides” value (from here on “Herbicidal effect grade, B”) is 4 (Herbicidal ratio of 70% or higher and lower than 90%). Also, the “e (wheat) effect on crop grade” value in the series on wheat was 3 (Herbicidal ratio of 40% or higher and lower than 70%). For the same compound, in the series on corn, the “c: corn, effect on crop grade” value is on record as 5 (Herbicidal ratio of 90% or more (almost completely withered)). The “d (soybean) effect on crop grade” value in the series on soybean was 2 (Herbicidal ratio of 20% or higher and lower than 40%). Moreover, in the series on rice, the “b (directly sowed rice plant) effect on crop grade” value was 5 (Herbicidal ratio of 90% or more (almost completely withered)). Further, the “Herbicidal effect grade, C: Monochoria vaginalis” value (“Herbicidal effect grade, C” for short) in the series on Monochoria vaginalis was 1 (Herbicidal ratio of 5% or higher and lower than 20%). Moreover, the “K: Lolium multiflorum Lam., herbicidal effect grade” value in the series on Lolium multiflorum Lam. was 3 (Herbicidal ratio of 40% or higher and lower than 70%). Also, the “Herbicidal effect grade, A: Echinochloa oryzacola Vasing.” value in [2] was 5 (Herbicidal ratio of 90% or more (almost completely withered)).

Consider `CON=C(C)CC1CC(OC(=O)C(C)(C)Oc2cccc(Cl)c2)=C(c2c(C)cc(C)cc2C)C1=O` (centres unmarked) [1-065], for which the “herbicidal effect on E, grade 0-5” value with Cyperus difformis is listed as 5 (Herbicidal ratio of 90% or more (almost completely withered)). In [1], the “effect on crop b” value is listed as 5 (Herbicidal ratio of 90% or more (almost completely withered)). The “Effect grade on crop” value in the series on transplanted rice plant is on record as 5 (Herbicidal ratio of 90% or more (almost completely withered)). The “I: Avena fatua, herbicidal effect grade” value in the series on Avena fatua was 5 (Herbicidal ratio of 90% or more (almost completely withered)). Also, the “O: Chenopodium album” value with Chenopodium album was 2 (Herbicidal ratio of 20% or higher and lower than 40%). The “Herbicidal effect grade, B” value in the series on Scirpus juncoides is on record as 5 (Herbicidal ratio of 90% or more (almost completely withered)). Also, in the series with wheat, the “e (wheat) effect on crop grade” value is 4 (Herbicidal ratio of 70% or higher and lower than 90%). Also, the “c: corn, effect on crop grade” value with corn is 5 (Herbicidal ratio of 90% or more (almost completely withered)). Besides, the “d (soybean) effect on crop grade” value in the series with soybean is on record as 0 (Herbicidal ratio of 5% or lower (almost no effect)). Moreover, in the series with rice, the “b (directly sowed rice plant) effect on crop grade” value is 5 (Herbicidal ratio of 90% or more (almost completely withered)). The “Herbicidal effect grade, C” value with Monochoria vaginalis is reported as 0 (Herbicidal ratio of 5% or lower (almost no effect)). Further, in the series with Lolium multiflorum Lam., the “K: Lolium multiflorum Lam., herbicidal effect grade” value was 5 (Herbicidal ratio of 90% or more (almost completely withered)). Further, in series [2], the “Herbicidal effect grade, A: Echinochloa oryzacola Vasing.” value was 5 (Herbicidal ratio of 90% or more (almost completely withered)).

`CCC(C)C(CC1CC(O)=C(c2c(C)cc(C)cc2C)C1=O)=NOC` (centres unmarked) [1-066]: the “herbicidal effect on E, grade 0-5” value in the series on Cyperus difformis is 5 (Herbicidal ratio of 90% or more (almost completely withered)). Also, the “effect on crop b” value in series [1] is given as 5 (Herbicidal ratio of 90% or more (almost completely withered)). The “Effect grade on crop” value in the series on transplanted rice plant is on record as 5 (Herbicidal ratio of 90% or more (almost completely withered)). The “I: Avena fatua, herbicidal effect grade” value in the series with Avena fatua was 4 (Herbicidal ratio of 70% or higher and lower than 90%). The “O: Chenopodium album” value in the series with Chenopodium album was 1 (Herbicidal ratio of 5% or higher and lower than 20%). In addition, in the series with Scirpus juncoides, the “Herbicidal effect grade, B” value is given as 0 (Herbicidal ratio of 5% or lower (almost no effect)). For the same compound, in the series on wheat, the “e (wheat) effect on crop grade” value was 0 (Herbicidal ratio of 5% or lower (almost no effect)). In addition, the “c: corn, effect on crop grade” value in the series on corn is 4 (Herbicidal ratio of 70% or higher and lower than 90%). The “d (soybean) effect on crop grade” value in the series on soybean is on record as 0 (Herbicidal ratio of 5% or lower (almost no effect)). Also, the “b (directly sowed rice plant) effect on crop grade” value in the series with rice was 5 (Herbicidal ratio of 90% or more (almost completely withered)). For the same compound, the “Herbicidal effect grade, C” value with Monochoria vaginalis was 0 (Herbicidal ratio of 5% or lower (almost no effect)). Moreover, the “K: Lolium multiflorum Lam., herbicidal effect grade” value in the series on Lolium multiflorum Lam. is listed as 5 (Herbicidal ratio of 90% or more (almost completely withered)). In [2], the “Herbicidal effect grade, A: Echinochloa oryzacola Vasing.” value was 4 (Herbicidal ratio of 70% or higher and lower than 90%).

As to `CON=C(C)CC1CC(OC(=O)COc2ccccc2OC)=C(c2c(C)cc(C)cc2C)C1=O` (centres unmarked) [1-067], in the series on Cyperus difformis, the “herbicidal effect on E, grade 0-5” value is on record as 5 (Herbicidal ratio of 90% or more (almost completely withered)). Further, in series [1], the “effect on crop b” value was 5 (Herbicidal ratio of 90% or more (almost completely withered)). The “Effect grade on crop” value in the series with transplanted rice plant is given as 5 (Herbicidal ratio of 90% or more (almost completely withered)). In addition, the “I: Avena fatua, herbicidal effect grade” value in the series with Avena fatua is reported as 5 (Herbicidal ratio of 90% or more (almost completely withered)). The “O: Chenopodium album” value in the series on Chenopodium album is 2 (Herbicidal ratio of 20% or higher and lower than 40%). Besides, in the series on Scirpus juncoides, the “Herbicidal effect grade, B” value is 4 (Herbicidal ratio of 70% or higher and lower than 90%). Besides, the “e (wheat) effect on crop grade” value with wheat was 5 (Herbicidal ratio of 90% or more (almost completely withered)). Also, the “c: corn, effect on crop grade” value in the series with corn is on record as 5 (Herbicidal ratio of 90% or more (almost completely withered)). Also, in the series on soybean, the “d (soybean) effect on crop grade” value is 0 (Herbicidal ratio of 5% or lower (almost no effect)). Also, the “b (directly sowed rice plant) effect on crop grade” value in the series with rice was 5 (Herbicidal ratio of 90% or more (almost completely withered)). The “Herbicidal effect grade, C” value in the series with Monochoria vaginalis is 2 (Herbicidal ratio of 20% or higher and lower than 40%). The “K: Lolium multiflorum Lam., herbicidal effect grade” value with Lolium multiflorum Lam. was 3 (Herbicidal ratio of 40% or higher and lower than 70%). Also, the “Herbicidal effect grade, A: Echinochloa oryzacola Vasing.” value in series [2] is recorded as 5 (Herbicidal ratio of 90% or more (almost completely withered)).

For the compound `CON=C(C)CC1CC(OC(=O)COc2cccc(OC)c2)=C(c2c(C)cc(C)cc2C)C1=O` (centres unmarked) [1-068], the “herbicidal effect on E, grade 0-5” value in the series with Cyperus difformis is on record as 5 (Herbicidal ratio of 90% or more (almost completely withered)). Moreover, in series [1], the “effect on crop b” value is 5 (Herbicidal ratio of 90% or more (almost completely withered)). The “Effect grade on crop” value in the series with transplanted rice plant was 5 (Herbicidal ratio of 90% or more (almost completely withered)). Further, the “I: Avena fatua, herbicidal effect grade” value in the series on Avena fatua is reported as 5 (Herbicidal ratio of 90% or more (almost completely withered)). Also, the “O: Chenopodium album” value with Chenopodium album is 1 (Herbicidal ratio of 5% or higher and lower than 20%). The “Herbicidal effect grade, B” value with Scirpus juncoides is on record as 5 (Herbicidal ratio of 90% or more (almost completely withered)). In the series on wheat, the “e (wheat) effect on crop grade” value is 4 (Herbicidal ratio of 70% or higher and lower than 90%). The “c: corn, effect on crop grade” value with corn is listed as 5 (Herbicidal ratio of 90% or more (almost completely withered)). For the same compound, the “d (soybean) effect on crop grade” value in the series with soybean was 0 (Herbicidal ratio of 5% or lower (almost no effect)). The “b (directly sowed rice plant) effect on crop grade” value in the series on rice is given as 5 (Herbicidal ratio of 90% or more (almost completely withered)). The “Herbicidal effect grade, C” value in the series on Monochoria vaginalis was 3 (Herbicidal ratio of 40% or higher and lower than 70%). In addition, the “K: Lolium multiflorum Lam., herbicidal effect grade” value in the series with Lolium multiflorum Lam. is 5 (Herbicidal ratio of 90% or more (almost completely withered)). Besides, the “Herbicidal effect grade, A: Echinochloa oryzacola Vasing.” value in series [2] was 5 (Herbicidal ratio of 90% or more (almost completely withered)).

(Values after patent US11000033B2, “Ketone or oxime compound, and herbicide” (NISSAN CHEMICAL CORPORATION, priority 2014, dated 2021).)
